Like-named read-outs stand apart in the source and are kept apart here.
Experiments:
CD69 = assay: Induction of CD69 in human whole blood; assay type: cell-based; conditions: 100% set to 1 uM of resiquimod, average where assay performed multiple times, read-out: hWB CD69 EC50
How it was run: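 Heparinized human whole blood treated with TLR7 agonist at final 1 uM and incubated 17 h at 37° C. CD69 surface staining alongside CD14 and CD19, then fix/lysis and flow cytometry on iQuePlus. Curves fitted with 1 uM resiquimod set as 100%.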

human TLR7 = biological target: T1, human TLR7 (Homo sapiens, UniProt Q9NYK1); assay: Human TLR7 agonist activity assay (HEK-Blue TLR7 SEAP reporter); assay type: cell-based; conditions: HEK-Blue TLR7 cells, 18 h treatment, average where assay performed multiple times, read-out: hTLR7 Agonism EC50
T1 construct: host or cells: HEK-Blue TLR7 cells (engineered human embryonic kidney cells)
T1 sequence (Q9NYK1 27-1049): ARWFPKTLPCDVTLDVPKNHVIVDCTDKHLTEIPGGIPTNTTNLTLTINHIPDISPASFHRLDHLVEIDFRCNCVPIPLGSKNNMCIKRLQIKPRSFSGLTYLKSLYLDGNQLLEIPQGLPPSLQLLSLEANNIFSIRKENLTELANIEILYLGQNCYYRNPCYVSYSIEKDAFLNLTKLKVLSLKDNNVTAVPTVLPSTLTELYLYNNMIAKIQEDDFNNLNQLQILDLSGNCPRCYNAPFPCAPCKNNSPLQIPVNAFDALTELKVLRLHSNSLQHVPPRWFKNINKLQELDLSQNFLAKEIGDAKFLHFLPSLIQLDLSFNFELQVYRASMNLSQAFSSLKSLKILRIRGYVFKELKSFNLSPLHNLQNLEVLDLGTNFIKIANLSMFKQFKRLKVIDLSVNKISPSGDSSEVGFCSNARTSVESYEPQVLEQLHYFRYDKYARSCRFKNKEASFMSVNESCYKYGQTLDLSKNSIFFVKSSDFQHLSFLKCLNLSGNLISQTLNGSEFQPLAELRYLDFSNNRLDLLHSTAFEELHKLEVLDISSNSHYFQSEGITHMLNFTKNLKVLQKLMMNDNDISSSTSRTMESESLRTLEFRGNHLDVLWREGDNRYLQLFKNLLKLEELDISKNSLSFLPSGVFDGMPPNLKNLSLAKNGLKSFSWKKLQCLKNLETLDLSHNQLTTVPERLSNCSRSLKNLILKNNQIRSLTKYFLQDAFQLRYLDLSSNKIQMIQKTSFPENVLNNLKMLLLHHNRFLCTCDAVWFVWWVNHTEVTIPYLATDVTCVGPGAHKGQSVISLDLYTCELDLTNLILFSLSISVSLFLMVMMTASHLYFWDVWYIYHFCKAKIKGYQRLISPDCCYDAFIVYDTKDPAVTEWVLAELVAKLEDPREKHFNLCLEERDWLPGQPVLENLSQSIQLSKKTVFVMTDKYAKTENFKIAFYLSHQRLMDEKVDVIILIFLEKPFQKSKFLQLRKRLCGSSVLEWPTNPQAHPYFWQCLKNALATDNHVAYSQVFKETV
How it was run: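 HEK-Blue TLR7 cells (15,000/well) treated with compound for 18 h at 37 °C, 5% CO2. Secreted SEAP measured with Quanti-Blue, 30 min, OD 620 nm. EC50 taken as concentration giving half-maximal response between baseline and maximum.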

`CCC[C@@H](CCO)Nc1nc(N)nc2cnn(Cc3ccc(C4CN(CCO)CCN4)cc3OC)c12` (stereo partly drawn) [Compound 181, (3S)-3-{[5-amino-1-({4-[4-(2-hydroxyethyl)piperazin-2-yl]-2-methoxyphenyl}methyl)-1H-pyrazolo[4,3-d]pyrimidin-7-yl]amino}hexan-1-ol] showed an EC50 (CD69; Homo sapiens, 17 h) of 4.57 nM and an EC50 (human TLR7) of 139 nM.
`CCC[C@@H](CCO)Nc1nc(N)nc2cnn(Cc3ccc(C4CN(C(C)C)CCN4)cc3OC)c12` (stereo partly drawn) [Compound 182, (3S)-3-{[5-amino-1-({2-methoxy-4-[4-(propan-2-yl)piperazin-2-yl]phenyl}methyl)-1H-pyrazolo[4,3-d]pyrimidin-7-yl]amino}hexan-1-ol] showed an EC50 (CD69; Homo sapiens, 17 h) of 0.28 nM and an EC50 (human TLR7) of 6.8 nM.
With `CCC[C@@H](CCO)Nc1nc(N)nc2cnn(Cc3ccc(C4CN(C(C)C)CCN4)cc3OC)c12` (stereo partly drawn) [Compound 184, (3S)-3-{[5-amino-1-({2-methoxy-4-[4-(propan-2-yl)piperazin-2-yl]phenyl}methyl)-1H-pyrazolo[4,3-d]pyrimidin-7-yl]amino}hexan-1-ol] the EC50 (CD69; 17 hrs) was 0.15 nM and the EC50 (human TLR7) was 6.5 nM.
For `CCC[C@@H](CCO)Nc1nc(N)nc2cnn(Cc3nc(C4CCNCC4)ccc3OC)c12` [Compound 186, (3S)-3-[(5-amino-1-{[3-methoxy-6-(piperidin-4-yl)pyridin-2-yl]methyl}-1H-pyrazolo[4,3-d]pyrimidin-7-yl)amino]hexan-1-ol], the EC50 (CD69; Homo sapiens, 17 h) was 242 nM and the EC50 (human TLR7) was 1650 nM.
`CCC[C@@H](CCO)Nc1nc(N)nc2cnn(Cc3nc(C4CCN(C(=O)CN(C)C)CC4)ccc3OC)c12` [Compound 187, 1-(4-{6-[(5-amino-7-{[(3S)-1-hydroxyhexan-3-yl]amino}-1H-pyrazolo[4,3-d]pyrimidin-1-yl)methyl]-5-methoxypyridin-2-yl}piperidin-1-yl)-2-(dimethylamino)ethan-1-one] was tested, and the EC50 (CD69; Homo sapiens, 17 h) was 80.5 nM and the EC50 (human TLR7) was 402 nM.
`CCC[C@@H](CCO)Nc1nc(N)nc2cnn(Cc3nc(C4CCN(CCO)CC4)ccc3OC)c12` [Compound 188, (3S)-3-{[5-amino-1-({6-[1-(2-hydroxyethyl)piperidin-4-yl]-3-methoxypyridin-2-yl}methyl)-1H-pyrazolo[4,3-d]pyrimidin-7-yl]amino}hexan-1-ol] gave an EC50 (CD69; Homo sapiens, 17 h) of 83.7 nM and an EC50 (human TLR7) of 290 nM.
`CCC[C@@H](CCO)Nc1nc(N)nc2cnn(Cc3nc(C4CCN(C5CCOCC5)CC4)ccc3OC)c12` [Compound 189, (3S)-3-{[5-amino-1-({3-methoxy-6-[1-(oxan-4-yl)piperidin-4-yl]pyridin-2-yl}methyl)-1H-pyrazolo[4,3-d]pyrimidin-7-yl]amino}hexan-1-ol] gave an EC50 (CD69; Homo sapiens, 17 h) of 9.8 nM and an EC50 (human TLR7) of 85.3 nM.
`CCC[C@@H](CCO)Nc1nc(N)nc2cnn(Cc3nc(C4CCN(C(C)C)CC4)ccc3OC)c12` [Compound 190, (3S)-3-{[5-amino-1-({3-methoxy-6-[1-(propan-2-yl)piperidin-4-yl]pyridin-2-yl}methyl)-1H-pyrazolo[4,3-d]pyrimidin-7-yl]amino}hexan-1-ol] was tested, and the EC50 (CD69; Homo sapiens, 17 h) was 26.7 nM and the EC50 (human TLR7) was 175 nM.
Work on `CCC[C@@H](CCO)Nc1nc(N)nc2cnn(Cc3nc(C4CCN(C)CC4)ccc3OC)c12` [Compound 191, (3S)-3-[(5-amino-1-{[3-methoxy-6-(1-methylpiperidin-4-yl)pyridin-2-yl]methyl}-1H-pyrazolo[4,3-d]pyrimidin-7-yl)amino]hexan-1-ol] yielded an EC50 (CD69; Homo sapiens, 17 h) of 35.8 nM and an EC50 (human TLR7) of 221 nM.
`CCCCNc1nc(N)nc2cnn(Cc3cc(F)c(N4CCNCC4)cc3OC)c12` [Compound 192, N7-butyl-1-{[5-fluoro-2-methoxy-4-(piperazin-1-yl)phenyl]methyl}-1H-pyrazolo[4,3-d]pyrimidine-5,7-diamine] showed an EC50 (CD69; Homo sapiens, 17 h) of 58.2 nM and an EC50 (human TLR7) of 193 nM.
`CCCCNc1nc(N)nc2cnn(Cc3cc(F)c(N4CCN(S(C)(=O)=O)CC4)cc3OC)c12` [Compound 193, N7-butyl-1-{[5-fluoro-4-(4-methanesulfonylpiperazin-1-yl)-2-methoxyphenyl]methyl}-1H-pyrazolo[4,3-d]pyrimidine-5,7-diamine] gave an EC50 (CD69; Homo sapiens, 17 h) of 529 nM and an EC50 (human TLR7) of 84.9 nM.
For `CCCCNc1nc(N)nc2cnn(Cc3cc(F)c(N4CCN(C(=O)CN5CC(OC)C5)CC4)cc3OC)c12` [Compound 194, 1-[4-(4-{[5-amino-7-(butylamino)-1H-pyrazolo[4,3-d]pyrimidin-1-yl]methyl}-2-fluoro-5-methoxyphenyl)piperazin-1-yl]-2-(3-methoxyazetidin-1-yl)ethan-1-one], the EC50 (CD69; Homo sapiens, 17 h) was 37.1 nM and the EC50 (human TLR7) was 63.1 nM.
In the case of `CCCCNc1nc(N)nc2cnn(Cc3cc(F)c(N4CCN(C(=O)CNC5CCOCC5)CC4)cc3OC)c12` [Compound 195, 1-[4-(4-{[5-amino-7-(butylamino)-1H-pyrazolo[4,3-d]pyrimidin-1-yl]methyl}-2-fluoro-5-methoxyphenyl)piperazin-1-yl]-2-[(oxan-4-yl)amino]ethan-1-one], the EC50 (CD69; Homo sapiens, 17 h) is reported as 128 nM and the EC50 (human TLR7) is reported as 53.3 nM.
`CCCCNc1nc(N)nc2cnn(Cc3cc(F)c(N4CCN(C(=O)CNCC(C)(C)O)CC4)cc3OC)c12` [Compound 196, 1-[4-(4-{[5-amino-7-(butylamino)-1H-pyrazolo[4,3-d]pyrimidin-1-yl]methyl}-2-fluoro-5-methoxyphenyl)piperazin-1-yl]-2-[(2-hydroxy-2-methylpropyl)amino]ethan-1-one] gave an EC50 (CD69; Homo sapiens, 17 h) of 81 nM and an EC50 (human TLR7) of 131 nM.
`CCCCNc1nc(N)nc2cnn(Cc3cc(F)c(N4CCN(C(=O)CNCCS(C)(=O)=O)CC4)cc3OC)c12` [Compound 197, 1-[4-(4-{[5-amino-7-(butylamino)-1H-pyrazolo[4,3-d]pyrimidin-1-yl]methyl}-2-fluoro-5-methoxyphenyl)piperazin-1-yl]-2-[(2-methanesulfonylethyl)amino]ethan-1-one] gave an EC50 (CD69; Homo sapiens, 17 h) of 1000 nM and an EC50 (human TLR7) of 320 nM.
For `CCCCNc1nc(N)nc2cnn(Cc3cc(F)c(N4CCN(C(=O)CN5CCC[C@H]5CO)CC4)cc3OC)c12` [Compound 198, 1-[4-(4-{[5-amino-7-(butylamino)-1H-pyrazolo[4,3-d]pyrimidin-1-yl]methyl}-2-fluoro-5-methoxyphenyl)piperazin-1-yl]-2-[(2S)-2-(hydroxymethyl)pyrrolidin-1-yl]ethan-1-one], the EC50 (CD69; Homo sapiens, 17 h) was 50.9 nM and the EC50 (human TLR7) was 48.2 nM.
In the case of `CCCCNc1nc(N)nc2cnn(Cc3cc(F)c(N4CCN(C(=O)CN5CC(O)C5)CC4)cc3OC)c12` [Compound 199, 1-[4-(4-{[5-amino-7-(butylamino)-1H-pyrazolo[4,3-d]pyrimidin-1-yl]methyl}-2-fluoro-5-methoxyphenyl)piperazin-1-yl]-2-(3-hydroxyazetidin-1-yl)ethan-1-one], the EC50 (CD69; Homo sapiens, 17 h) is reported as 1000 nM and the EC50 (human TLR7) is reported as 339 nM.

— patent US20230144824A1, “1H-PYRAZOLO[4,3-d]PYRIMIDINE COMPOUNDS AS TOLL-LIKE RECEPTOR 7 (TLR7) AGONISTS” (BRISTOL-MYERS SQUIBB COMPANY, priority 2020, published 2023)
